Test results published in paper PMC9933483, “Tail-Approach-Based Design and Synthesis of Coumarin-Monoterpenes as Carbonic Anhydrase Inhibitors and Anticancer Agents” (ACS Omega, 2023).

What was measured:
HEK293T cell line = assay: Cell cytotoxicity, MTT assay; type: cell-based; settings: Homo sapiens, HEK-293T, 24 h, healthy cell line
CA IX [1] = assay: Western blotting of CA IX protein expression in HT-29 cells; type: cell-based, human; settings: western blot, hypoxia (200 μM CoCl2), 24 h, three doses
Method: (§1) CA IX and CA XII protein expressions were evaluated in treated and control HT-29 and MCF7 cells after hypoxia induction. Cells were seeded in a 6-well plate in DMEM/F12 (normoxic cells) or DMEM/F12 containing 200 μM CoCl2 (hypoxic and treated cells) in order to create hypoxia.[25] HT29 cells were treated with 14 (40, 10, and 1.25 μM), 23 (80, 20, and 1.25 μM), and 66 (80, 20, and 1.25 μM), and MCF7 cells were treated with 14 (40, 10, and 1.25 μM), 23 (80, 20, and 1.25 μM), and 63 (80, 20, and 1.25 μM) for 24 h at three different doses. After the treatment period, cells were washed with cold PBS and homogenized into Ripa cell lysis buffer (Santa Cruz, USA). Samples were prepared, electrophoresed, and transferred according to the literature.[25] The membranes were blocked in 5% fat-free milk (w/v) for 1 h at RT, incubated with the corresponding antibody at 4 °C overnight, and then incubated with the horseradish peroxidase (HRP)-labeled secondary antibody for 1 h at RT. The following antibodies were used: anti-CA IX (ab107257, Abcam), anti-CA XII (sc-374314, Santa Cruz), and anti-GAPDH (A19056, Abclonal). Finally, the membranes were stained with ECL reagents (LumiGLO, CST, USA), and then, imaging was performed with the Bio-Rad Chemidoc Imaging System. The bands were calculated with the Image Lab (Bio-Rad, USA) and analyzed with Graphpad Prism 9.00 (San Diego, CA, USA).

HT-29 cell line = assay: Cell cytotoxicity, MTT assay; type: cell-based, human; settings: for IC50: Homo sapiens, HT-29, MTT, 24 h
CA IX [2] = assay: Western blotting of CA IX protein expression in MCF-7 cells; type: cell-based, human; settings: western blot, hypoxia (200 μM CoCl2), 24 h, three doses
Method: as §1

MCF-7 cell line = assay: Cell cytotoxicity, MTT assay; type: cell-based, human; settings: Homo sapiens, MCF7, 24 h
CA XII [3] = assay: Western blotting of CA XII protein expression in MCF-7 cells; type: cell-based, human; settings: western blot, hypoxia (200 μM CoCl2), 24 h, three doses
Method: as §1

PC-3 cell line = assay: Cell cytotoxicity, MTT assay; type: cell-based; settings: Homo sapiens, 24 h
HT-29 cells = assay: Fluorescence microscopy, PI/Hoechst staining; type: cell-based, human; settings: HT-29, 1.25 μM, 24 h
Method: HT-29 cells were stained with propidium iodide (PI) and Hoechst 33342 for observation of cell viability under the microscope. HT29 cells were treated with 14, 23, and 66 for 24 h at 1.25 μM concentration. After the treatment period cells were rinsed with PBS, fixed with ice-cold ethanol (95%) at −20 °C for 2 h, and then rinsed with PBS again. Cells were incubated with PI and Hoechst for 10 min and observed by using a fluorescence microscope (Zeiss Axio Observer Z1) with the appropriate excitation/detection filters.

CA XII [4] = assay: Western blotting of CA XII protein expression in HT-29 cells; type: cell-based, human; settings: western blot, hypoxia (200 μM CoCl2), 24 h, three doses
Method: as §1

hCA IX = hCA IX (Homo sapiens, UniProt Q16790); assay: biochemical

| Structure (SMILES) | IC50 (HEK293T cell line) [µM] | CA IX expression in HT-29 cells (CA IX [1]) | IC50 (HT-29 cell line) [µM] | CA IX expression in MCF-7 cells (CA IX [2]) | IC50 (MCF-7 cell line) [µM] | CA XII expression in MCF-7 cells (CA XII [3]) | IC50 (PC-3 cell line) [µM] | apoptotic/dead cells by PI/Hoechst staining (HT-29 cells) | CA XII expression in HT-29 cells (CA XII [4]) | Ki (hCA IX) [µM] | selectivity on HT-29 (cancer vs healthy cells) relative to dox (HT-29 cell line; compared with dox) [fold] |
| --- | --- | --- | --- | --- | --- | --- | --- | --- | --- | --- | --- |
| Cc1ccc(C(C)C)c(OCc2cn(CCCCOc3ccc4ccc(=O)oc4c3)nn2)c1 [Compound 14, 7-(4-(4-((2-Isopropyl-5-methylphenoxy)methyl)-1H-1,2,3-triazol-1-yl)butoxy)-2H-chromen-2-one] | 4.57 ± 0.33 | decreased | 25.1 ± 6.47 | decreased | 2.48 ± 0.69 | decreased | 53.8 ± 23.4 | increased apoptotic/dead cells | decreased | – | – |
| Cc1ccc(C(C)C)cc1OCc1cn(CCCCCCOc2ccc3ccc(=O)oc3c2)nn1 [Compound 23, 7-((6-(4-((5-Isopropyl-2-methylphenoxy)methyl)-1H-1,2,3-triazol-1-yl)hexyl)oxy)-2H-chromen-2-one] | 8.82 ± 1.42 | decreased | 12.1 ± 3.63 | decreased | 9.1 ± 3.93 | decreased | 9.4 ± 3.35 | increased apoptotic/dead cells | decreased | 0.0019 | 3 |
| C=CCc1ccc(OCCCCCCCCCCOc2ccc3ccc(=O)oc3c2)c(OC)c1 [Compound 66, 7-((10-(4-Allyl-2-methoxyphenoxy)decyl)oxy)-2H-chromen-2-one] | 18.3 ± 3.08 | decreased | 22 ± 5.63 | – | 17.8 ± 2.76 | – | 25.6 ± 3.47 | increased apoptotic/dead cells | decreased | 1.3 | – |
